Assay results as given in patent US5191079A, “Quinolinecarboxylic acid derivatives” (priority 1990, dated 1993).
Converted amounts (≈) assume the structure as drawn. Where a name gives a salt, the structure may show the parent alone. Read-outs that look alike come from different tables or passages of the source.

Assays:
[1] = test system: Staphylococcus epidermidis IAM 1296; assay: MIC, Experiment 1; type: cell-based; settings: IAM1296, S. epidermidis IAM 1296, Gram +, read-out: Min. inhib. concentr. (MIC)
Experimental: The compounds of the present invention ([…] and Q) were each dissolved in dimethylsulfoxide to prepare a solution of 5000 μg/ml in concentration. The compounds of the present invention (I, J and K) and the known compound (Y) were each dissolved in sterilized distilled water to prepare a solution of 5000 μg/ml in concentration. […] The test was carried out by a method as appointed by Japan Society of Chemotherapy [cf. Chemotherapy, 29, 76-79 (1981), TOKYO]. As to Streptococcus pneumoniae and Streptococcus pyogenes, Brain heart infusion broth (manufactured by DIFCO) was used as the medium for the preculture thereof, and a heart infusion agar medium containing 5% defibrinated horse blood (manufactured by Nissui Seiyaku K. K., Japan) was used as the medium for the measurement of minimum inhibitory concentration (MIC). As to other microorganisms, a sensitivity test broth (manufactured by Nissui Seiyaku K. K.) was used as the medium for the preculture thereof, and a sensitivity test agar medium (manufactured by Nissui Seiyaku K. K.) was used as the medium for the measurement of MIC.

[2] = test system: clinically isolated Staphylococcus aureus; assay: In vitro antibacterial activity against clinical isolates, Experiment 2; type: cell-based
Summary of the method: (§1)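 Clinical isolates collected Nov. 1988 to Jun. 1989 were precultured in sensitivity test broth. MIC was determined on sensitivity test agar. Compound standard solution was 1000 μg/ml (stock) in sterilized distilled water.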

[3] = test system: clinically isolated Staphylococcus epidermidis; assay: as above; type: cell-based; settings: for MIC / MIC50 / MIC90: Staphylococcus epidermidis
Summary of the method: as §1

[4] = test system: Staphylococcus aureus IID 803; assay: Effect on treatment of general infectious disease (systemic infection in mice), Experiment 3; type: in vivo, Staphylococcus aureus; ddY male mice; settings: for protective effects against infection: Experiment 3, in words; for ED50: Staphylococcus aureus, IID803, 168 h, oral, 1 h after i.p. infection, mice, survival after one week, average of several tests, read-out: 50% effective dose (ED50)
Experimental: Staphylococcus aureus IID 803
The test microorganism was subjected to standing culture in Brain heart infusion broth (manufactured by DIFCO) at 37° C. for 16 to 18 hours. The culture was then diluted with PBS (Dulbecco's phosphate buffered saline) to adjust the concentration of bacteria to 4×10^7 -8×10^7 CFU/ml. The mixture was mixed with an equivalent amount of 10% (w/v) Mucin (BACTO MUCIN BACTERIOLOGICAL, manufactured by Difco Co.) to prepare a bacterial suspension. The thus prepared bacterial suspension (0.5 ml each) was intraperitoneally inoculated to ddY male mice (5 weeks age, weighing 24-27 g, 5 mice in each group), to infect the animals, by which systemic infectious model was prepared.
The mice were daily observed for one week, and from the survival number of mice after one week, the 50% effective dose (ED50) was calculated by Weil method. This test was repeated several times and the average of ED50 was calculated.

[5] = 25 clinical strains S. aureus incl. 16 methicillin resistant
[6] = 25 clinical strains S. aureus incl. 16 methicillin resistant, 50% of strains, read-out: MIC50
[7] = 25 clinical strains S. aureus incl. 16 methicillin resistant, 90% of strains, read-out: MIC90
[8] = 25 clinical strains S. epidermidis
[9] = 25 clinical strains S. epidermidis, 50% of strains, read-out: MIC50
[10] = 25 clinical strains S. epidermidis, 90% of strains, read-out: MIC90

SMILES	MIC [1]	MIC [2, 5]	MIC50 [2, 6]	MIC90 [2, 7]	MIC [3, 8]	MIC50 [3, 9]	MIC90 [3, 10]	MIC50 [2]	MIC90 [2]	MIC90 [3]	protective effects against infection [4]	ED50 [4]	MIC50 [3]	MICrange [3, 8]
CN1Cc2csc3c(C(=O)O)c(=O)c4cc(F)c(N5CCOC(CCl)C5)c1c4n23 (stereo not shown) [Compound (D), 9,1-(Methylimino)methano-7-fluoro-8-(2-chloromethylmorpholino)-5-oxo-5H-thiazolo[3,2-a]quinoline-4-carboxylic acid]	0.025 mg/L (≈ 0.0571 µM)	0.006 to 0.2 mg/L (≈ 0.0137 to 0.457 µM)	0.013 mg/L (≈ 0.0297 µM)	0.2 mg/L (≈ 0.457 µM)	0.006 to 0.39 mg/L (≈ 0.0137 to 0.891 µM)	0.013 mg/L (≈ 0.0297 µM)	0.2 mg/L (≈ 0.457 µM)							
CN1Cc2csc3c(C(=O)O)c(=O)c4cc(F)c(N5CCN6CCOC[C@H]6C5)c1c4n23 [Compound (F), 9,1-(Methylimino)methano-7-fluoro-8-[(6R)-1,8-diaza-4-oxabicyclo[4.4.0]deca-8-yl]-5-oxo-5H-thiazolo[3,2-a]quinoline-4-carboxylic acid]	0.05 mg/L (≈ 0.112 µM)	0.013 to 0.78 mg/L (≈ 0.0292 to 1.75 µM)			0.013 to 1.56 mg/L (≈ 0.0292 to 3.51 µM)	0.05 mg/L (≈ 0.112 µM)		0.025 mg/L (≈ 0.0562 µM)	0.78 mg/L (≈ 1.75 µM)	0.78 mg/L (≈ 1.75 µM)	excellent protective effects against infection	2.3 mg/kg		
CN1Cc2csc3c(C(=O)O)c(=O)c4cc(F)c(N5CCC(=O)CC5)c1c4n23 [Compound (G), 9,1-(Methylimino)methano-7-fluoro-8-(4-oxopiperidino)-5-oxo-5H-thiazolo[3,2-a]quinoline-4-carboxylic acid]	0.013 mg/L (≈ 0.0324 µM)	0.006 to 0.39 mg/L (≈ 0.0149 to 0.972 µM)	≤ 0.006 mg/L	0.2 mg/L (≈ 0.498 µM)	0.006 to 0.2 mg/L (≈ 0.0149 to 0.498 µM)	0.013 mg/L (≈ 0.0324 µM)	0.2 mg/L (≈ 0.498 µM)							
CN1Cc2csc3c(C(=O)O)c(=O)c4cc(F)c(N5CCC(N(C)C)CC5)c1c4n23 [Compound (H), 9,1-(methylimino)methano-7-fluoro-8-(4-dimethylaminopiperidino)-5-oxo-5H-thiazolo[3,2-a]quinoline-4-carboxylic acid]	0.2 mg/L (≈ 0.465 µM)	0.05 to 3.13 mg/L (≈ 0.116 to 7.27 µM)	0.1 mg/L (≈ 0.232 µM)	3.13 mg/L (≈ 7.27 µM)	0.05 to 3.13 mg/L (≈ 0.116 to 7.27 µM)	0.05 mg/L (≈ 0.116 µM)	3.13 mg/L (≈ 7.27 µM)							
CN1Cc2csc3c(C(=O)O)c(=O)c4cc(F)c(N5CCN(C)C(CO)C5)c1c4n23 (stereo not shown) [Compound (I), 9,1-(Methylimino)methano-7-fluoro-8-(3-hydroxymethyl-4-methyl-1-piperazinyl)-5-oxo-5H-thiazolo-[3,2-a]quinoline-4-carboxylic acid hydrochloride]	0.2 mg/L	0.1 to 12.5 mg/L	0.2 mg/L		0.05 to 3.13 mg/L	0.1 mg/L	3.13 mg/L		6.25 mg/L					
COCC1CN(c2c(F)cc3c(=O)c(C(=O)O)c4scc5n4c3c2N(C)C5)CCN1C (stereo not shown) [Compound (J), 9,1-(Methylimino)methano-7-fluoro-8-(3-methoxymethyl-4-methyl-1-piperazinyl)-5-oxo-5H-thiazolo[3,2-a]quinoline-4-carboxylic acid hydrochloride]	0.2 mg/L	0.05 to 6.25 mg/L	0.1 mg/L	3.13 mg/L	0.05 to 6.25 mg/L	0.1 mg/L	3.13 mg/L				excellent protective effects against infection	4.4 mg/kg		
CN1Cc2csc3c(C(=O)O)c(=O)c4cc(F)c(N5CCN(C)C(CF)C5)c1c4n23 (stereo not shown) [Compound (K), 9,1-(methylimino)methano-7-fluoro-8-(3-fluoromethyl-4-methyl-1-piperazinyl)-5-oxo-5H-thiazolo[3,2-a]quinoline-4-carboxylic acid hydrochloride]	0.1 mg/L	0.025 to 1.56 mg/L	0.05 mg/L	1.56 mg/L	0.05 to 1.56 mg/L	0.05 mg/L				0.78 mg/L				
CN1Cc2csc3c(C(=O)O)c(=O)c4cc(F)c(N5CCC(O)CC5)c1c4n23 [Compound (L), 9,1-(Methylimino)methano-7-fluoro-8-(4-hydroxypiperidino)-5-oxo-5H-thiazolo[3,2-a]quinoline-4-carboxylic acid]	0.013 mg/L (≈ 0.0322 µM)	0.006 to 0.39 mg/L (≈ 0.0149 to 0.967 µM)	≤ 0.006 mg/L	0.39 mg/L (≈ 0.967 µM)	0.006 to 0.39 mg/L (≈ 0.0149 to 0.967 µM)	0.013 mg/L (≈ 0.0322 µM)	0.39 mg/L (≈ 0.967 µM)							
CN1Cc2csc3c(C(=O)O)c(=O)c4cc(F)c(N5CCO[C@H](CO)C5)c1c4n23 [Compound (M), 9,1-(Methylimino)methano-7-fluoro-8-[ (2S)-2-hydroxymethylmorpholino]-5-oxo-5H-thiazolo[3,2-a]quinoline-4-carboxylic acid]	0.05 mg/L (≈ 0.119 µM)	0.006 to 0.78 mg/L (≈ 0.0143 to 1.86 µM)	0.013 mg/L (≈ 0.031 µM)		0.006 to 0.78 mg/L (≈ 0.0143 to 1.86 µM)		0.39 mg/L (≈ 0.93 µM)		0.78 mg/L (≈ 1.86 µM)				0.025 mg/L (≈ 0.0596 µM)	
CN1Cc2csc3c(C(=O)O)c(=O)c4cc(F)c(N5CCO[C@@H](CO)C5)c1c4n23 [Compound (N), 9,1-(Methylimino)methano-7-fluoro-8-[(2R)-2-hydroxymethylmorpholino]-5-oxo-5H-thiazolo[3,2-a]quinoline-4-caboxylic acid]	0.05 mg/L (≈ 0.119 µM)	0.006 to 0.78 mg/L (≈ 0.0143 to 1.86 µM)	0.013 mg/L (≈ 0.031 µM)		0.006 to 0.78 mg/L (≈ 0.0143 to 1.86 µM)		0.39 mg/L (≈ 0.93 µM)		0.78 mg/L (≈ 1.86 µM)				0.025 mg/L (≈ 0.0596 µM)	
COC[C@@H]1CN(c2c(F)cc3c(=O)c(C(=O)O)c4scc5n4c3c2N(C)C5)CCO1 [Compound (O), 9,1-(Methylimino)methano-7-fluoro-8-[(2S)-2-methoxymethylmorpholino)-5-oxo-5H-thiazolo[3,2-a]quinoline-4-carboxylic acid]	0.05 mg/L (≈ 0.115 µM)	0.006 to 0.78 mg/L (≈ 0.0138 to 1.8 µM)	0.013 mg/L (≈ 0.03 µM)		0.006 to 0.78 mg/L (≈ 0.0138 to 1.8 µM)	0.05 mg/L (≈ 0.115 µM)	0.39 mg/L (≈ 0.9 µM)		0.78 mg/L (≈ 1.8 µM)					
COC[C@H]1CN(c2c(F)cc3c(=O)c(C(=O)O)c4scc5n4c3c2N(C)C5)CCO1 [Compound (P), 9,1-(Methylimino)methano-7-fluoro-8-[(2R)-2-methoxymethylmorpholino)-5-oxo-5H-thiazolo[3,2-a]quinoline-4-carboxylic acid]	0.05 mg/L (≈ 0.115 µM)	0.006 to 0.78 mg/L (≈ 0.0138 to 1.8 µM)	0.013 mg/L (≈ 0.03 µM)		0.006 to 0.78 mg/L (≈ 0.0138 to 1.8 µM)	0.05 mg/L (≈ 0.115 µM)	0.39 mg/L (≈ 0.9 µM)		0.78 mg/L (≈ 1.8 µM)					
CCOCC1CN(c2c(F)cc3c(=O)c(C(=O)O)c4scc5n4c3c2N(C)C5)CCO1 (stereo not shown) [Compound (Q), 9,1-(Methylimino)methano-7-fluoro-8-(2-ethoxymethylmorpholino)-5-oxo-5H-thiazolo[3,2-a]quinoline-4-carboxylic acid]	0.1 mg/L (≈ 0.223 µM)	0.006 to 0.78 mg/L (≈ 0.0134 to 1.74 µM)	0.013 mg/L (≈ 0.0291 µM)		0.006 to 0.78 mg/L (≈ 0.0134 to 1.74 µM)		0.39 mg/L (≈ 0.872 µM)		0.78 mg/L (≈ 1.74 µM)				0.025 mg/L (≈ 0.0559 µM)	
CN1CCN(c2c(F)cc3c(=O)c(C(=O)O)c4scc5n4c3c2OC5)CC1 [Compound (Y), 9,1-Epoxymethano-7-fluoro-8-(4-methyl-1-piperazinyl)-5-oxo-5H-thiazolo[3,2-a]quinoline-4-carboxylic acid hydrochloride, reference compound]	0.39 mg/L	0.05 to 12.5 mg/L	0.2 mg/L	12.5 mg/L		0.1 mg/L	12.5 mg/L					10.8 mg/kg		0.025 to 25 µg/mL
